Assay results published in PubChem BioAssay AID2060890 (Molecular Pharmacology Branch, DTP, NCI, 2025).
pIC50: −log10 of the molar value.

System: LG0703-F948-PDC complex spheroid viability
Test: Anticancer human tumor LG0703-F948-PDC patient-derived lung adenocarcinoma cell line growth inhibition [RAS]
Conditions: for pIC50: curve of first compound; for viability, T/C: stronger effect = lower value
How it was run: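 Agents were tested in combination matrices in half-log decrements from a top concentration at or near clinical Cmax (10 microM if undetermined). Targets were multi-cell spheroids of tumour lines plus HUVEC and MSC stromal cells.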
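Note: spheroids exposed to agents for 7 days.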
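Throughout, for viability, T/C: 100% = DMSO vehicle wells.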

`CC1(O)CCCC1n1c(=O)c(C(F)F)cc2cnc(NC3CCN(S(C)(=O)=O)CC3)nc21` (configuration not stated) + C#Cc1c(F)ccc2cc(O)cc(-c3ncc4c(N5CC6CCC(C5)N6)nc(OCC56CCCN5CC(F)C6)nc4c3F)c12 was tested, and the pIC50 (second compound 0.0316 µM) was 5.21, the pIC50 (second compound 0.1 µM) was 5.14 and the pIC50 (second compound 0.316 µM) was 5.30. For the same molecule, the pIC50 (second compound 1 µM) was 5.24, the pIC50 (second compound 3.16 µM) was 5.37 and the pIC50 (second compound 10 µM) was 5.40. For the same molecule, the viability, T/C (second compound 0.0316 µM, first compound 0.0316 µM) was 109%, the viability, T/C (second compound 0.0316 µM, first compound 0.1 µM) was 92.2% and the viability, T/C (second compound 0.0316 µM, first compound 0.316 µM) was 97.8%. The viability, T/C (second compound 0.0316 µM, first compound 1 µM) was 87%, the viability, T/C (second compound 0.0316 µM, first compound 3.16 µM) was 77.1% and the viability, T/C (second compound 0.0316 µM, first compound 10 µM) was 31.6%. For the same molecule, the viability, T/C (second compound 0.1 µM, first compound 0.0316 µM) was 131%, the viability, T/C (second compound 0.1 µM, first compound 0.1 µM) was 109% and the viability, T/C (second compound 0.1 µM, first compound 0.316 µM) was 82.4%. It also gave a viability, T/C (second compound 0.1 µM, first compound 1 µM) of 76.3%, a viability, T/C (second compound 0.1 µM, first compound 3.16 µM) of 87.7% and a viability, T/C (second compound 0.1 µM, first compound 10 µM) of 29.5%. For the same molecule, the viability, T/C (second compound 0.316 µM, first compound 0.0316 µM) was 83.9%, the viability, T/C (second compound 0.316 µM, first compound 0.1 µM) was 72.4% and the viability, T/C (second compound 0.316 µM, first compound 0.316 µM) was 74.5%. The viability, T/C (second compound 0.316 µM, first compound 1 µM) was 65.9%, the viability, T/C (second compound 0.316 µM, first compound 3.16 µM) was 69.4% and the viability, T/C (second compound 0.316 µM, first compound 10 µM) was 23.9%. The viability, T/C (second compound 1 µM, first compound 0.0316 µM) was 78.3%, the viability, T/C (second compound 1 µM, first compound 0.1 µM) was 82.7% and the viability, T/C (second compound 1 µM, first compound 0.316 µM) was 88.3%. For the same molecule, the viability, T/C (second compound 1 µM, first compound 1 µM) was 67.1%, the viability, T/C (second compound 1 µM, first compound 3.16 µM) was 86.7% and the viability, T/C (second compound 1 µM, first compound 10 µM) was 21.3%. It also gave a viability, T/C (second compound 3.16 µM, first compound 0.0316 µM) of 71.5%, a viability, T/C (second compound 3.16 µM, first compound 0.1 µM) of 62% and a viability, T/C (second compound 3.16 µM, first compound 0.316 µM) of 69.1%. It also gave a viability, T/C (second compound 3.16 µM, first compound 1 µM) of 61.6%, a viability, T/C (second compound 3.16 µM, first compound 3.16 µM) of 63% and a viability, T/C (second compound 3.16 µM, first compound 10 µM) of 13.6%. The viability, T/C (second compound 10 µM, first compound 0.0316 µM) was 50%, the viability, T/C (second compound 10 µM, first compound 0.1 µM) was 71.3% and the viability, T/C (second compound 10 µM, first compound 0.316 µM) was 55.2%. For the same molecule, the viability, T/C (second compound 10 µM, first compound 1 µM) was 62.9%, the viability, T/C (second compound 10 µM, first compound 3.16 µM) was 65.1% and the viability, T/C (second compound 10 µM, first compound 10 µM) was 4.24%.
